Residue numbers refer to the chain shown, from its start. One block for each molecule: values may come before it.
Tests used:
GkApcT [1] = target: T1, GkApcT (Geobacillus kaustophilus, UniProt Q5L1G5, K191A); experiment: thermal stability (nanoDSF); assay type: binding; settings: 10 mM L-Ala; pH 6.0
T1 construct: gene GK0930; cleavable GFP-His tag (pWaldo-GFP) removed with TEV; expressed in E. coli C43(DE3); co-purifies with E. coli MgtS; purified in DM/DDM, reconstituted in POPE:POPG liposomes

GkApcT [2] = target: T2, GkApcT (Geobacillus kaustophilus, UniProt Q5L1G5); experiment: electrogenic 3H-L-Ala uptake competition in proteoliposomes; assay type: biochemical
T2 construct: gene GK0930; cleavable GFP-His tag (pWaldo-GFP) removed with TEV; expressed in E. coli C43(DE3); co-purifies with E. coli MgtS; purified in DM/DDM, reconstituted in POPE:POPG liposomes
T2 sequence (Q5L1G5 1-471): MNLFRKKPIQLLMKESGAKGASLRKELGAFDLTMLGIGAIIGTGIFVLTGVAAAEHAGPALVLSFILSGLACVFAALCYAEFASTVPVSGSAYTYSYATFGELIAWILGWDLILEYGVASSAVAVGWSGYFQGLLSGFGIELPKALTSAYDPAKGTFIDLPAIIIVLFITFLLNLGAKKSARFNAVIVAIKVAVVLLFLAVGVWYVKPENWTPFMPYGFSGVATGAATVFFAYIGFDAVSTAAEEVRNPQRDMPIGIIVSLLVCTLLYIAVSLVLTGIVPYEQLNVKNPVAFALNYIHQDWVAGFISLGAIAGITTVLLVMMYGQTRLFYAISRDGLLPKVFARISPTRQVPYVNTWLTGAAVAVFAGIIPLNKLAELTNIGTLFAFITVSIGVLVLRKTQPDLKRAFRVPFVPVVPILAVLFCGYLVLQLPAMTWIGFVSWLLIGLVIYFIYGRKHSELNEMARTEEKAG

GkApcT [3] = target: T2, GkApcT; experiment: thermal stability (nanoDSF); assay type: binding; settings: 10 mM L-Ala; pH 6.0
GkApcT [4] = target: T3, GkApcT (Geobacillus kaustophilus, UniProt Q5L1G5, K191R); experiment: thermal stability (nanoDSF); assay type: binding; settings: 10 mM L-Ala; pH 6.0
T3 construct: gene GK0930; cleavable GFP-His tag (pWaldo-GFP) removed with TEV; expressed in E. coli C43(DE3); co-purifies with E. coli MgtS; purified in DM/DDM, reconstituted in POPE:POPG liposomes
T3 sequence (Q5L1G5 entry or part of it K191R): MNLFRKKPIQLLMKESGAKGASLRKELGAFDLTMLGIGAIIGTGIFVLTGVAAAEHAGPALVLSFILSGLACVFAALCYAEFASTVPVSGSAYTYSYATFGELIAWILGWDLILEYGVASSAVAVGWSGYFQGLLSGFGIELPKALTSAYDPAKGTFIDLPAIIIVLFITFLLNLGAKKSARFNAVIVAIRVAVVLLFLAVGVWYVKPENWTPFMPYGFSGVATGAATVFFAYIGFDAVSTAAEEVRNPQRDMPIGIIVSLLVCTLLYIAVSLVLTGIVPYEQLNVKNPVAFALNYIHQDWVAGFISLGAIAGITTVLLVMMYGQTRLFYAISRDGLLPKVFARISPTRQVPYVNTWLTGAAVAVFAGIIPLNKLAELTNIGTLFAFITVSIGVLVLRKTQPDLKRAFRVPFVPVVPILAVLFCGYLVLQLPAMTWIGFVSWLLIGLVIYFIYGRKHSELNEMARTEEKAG

GkApcT [5] = target: T4, GkApcT (Geobacillus kaustophilus, UniProt Q5L1G5, K191N); experiment: thermal stability (nanoDSF); assay type: binding; settings: 10 mM L-Ala; pH 6.0
T4 construct: gene GK0930; cleavable GFP-His tag (pWaldo-GFP) removed with TEV; expressed in E. coli C43(DE3); co-purifies with E. coli MgtS; purified in DM/DDM, reconstituted in POPE:POPG liposomes
T4 sequence (Q5L1G5 entry or part of it K191N): as the sequence (Q5L1G5 entry or part of it K191R) above, with R191N counted along it

GkApcT [6] = target: T5, GkApcT (Geobacillus kaustophilus, UniProt Q5L1G5, E115Q); experiment: thermal stability (nanoDSF); assay type: binding; settings: 10 mM L-Ala; pH 6.0
T5 construct: gene GK0930; cleavable GFP-His tag (pWaldo-GFP) removed with TEV; expressed in E. coli C43(DE3); co-purifies with E. coli MgtS; purified in DM/DDM, reconstituted in POPE:POPG liposomes
T5 sequence (Q5L1G5 entry or part of it E115Q): as the sequence (Q5L1G5 entry or part of it K191R) above, with E115Q, R191K counted along it

GkApcT [7] = target: T6, GkApcT (Geobacillus kaustophilus, UniProt Q5L1G5, R334E); experiment: electrogenic 3H-L-Ala uptake competition in proteoliposomes; assay type: biochemical
T6 construct: gene GK0930; cleavable GFP-His tag (pWaldo-GFP) removed with TEV; expressed in E. coli C43(DE3); co-purifies with E. coli MgtS; purified in DM/DDM, reconstituted in POPE:POPG liposomes
T6 sequence (Q5L1G5 entry or part of it R334E): as the sequence (Q5L1G5 entry or part of it K191R) above, with R191K, R334E counted along it

GkApcT [8] = target: T7, GkApcT (Geobacillus kaustophilus, UniProt Q5L1G5, M321S); experiment: as above; assay type: biochemical
T7 construct: gene GK0930; cleavable GFP-His tag (pWaldo-GFP) removed with TEV; expressed in E. coli C43(DE3); co-purifies with E. coli MgtS; purified in DM/DDM, reconstituted in POPE:POPG liposomes
T7 sequence (Q5L1G5 1-471 M321S): T2 sequence (Q5L1G5 1-471) with M321S

GkApcT-MgtS heterodimer [9] = target: T8, GkApcT-MgtS heterodimer (Geobacillus kaustophilus, UniProt A5A616+Q5L1G5); experiment: thermal stability (circular dichroism); assay type: binding; settings: pH 6.5
T8 construct: gene GK0930; heterodimer of G. kaustophilus GkApcT with host-derived E. coli MgtS (YneM); GFP-His tag cut with TEV; expressed in E. coli C43(DE3)
T8 sequence (Q5L1G5 1-471): T2 sequence (Q5L1G5 1-471)
T8 sequence (A5A616 1-31): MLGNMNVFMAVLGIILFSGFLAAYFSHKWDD

GkApcT-MgtS heterodimer [10] = target: T8, GkApcT-MgtS heterodimer; experiment: X-ray crystal structure; assay type: binding; settings: site between GkApcT TM5 and MgtS; cholesterol-doped monoolein LCP

T1 sequence (Q5L1G5 entry or part of it K191A): as the sequence (Q5L1G5 entry or part of it K191R) above, with R191A counted along it

- IC50 (GkApcT [2]): 2 µM
- Tm with ligand (GkApcT [3]): ~58 to ~69
- IC50 (GkApcT [7]): 0.4 µM
Compound: C[C@H](N)C(=O)O [L-Alanine]
- dTm (GkApcT [1]): A similar stabilising effect was also observed in the Lys191Ala, Arg and Asn variants
- dTm (GkApcT [4]): A similar stabilising effect was also observed in the Lys191Ala, Arg and Asn variants
- dTm (GkApcT [5]): A similar stabilising effect was also observed in the Lys191Ala, Arg and Asn variants
- dTm (GkApcT [6]): Glu115Gln variant can still recognise alanine to the same extent as wild-type protein

Compound: N=C(N)NCCC[C@H](N)C(=O)O [L-arginine]
- IC50 (GkApcT [8]): 11.4 µM
- IC50 (GkApcT [2]): 6000 µM

- Tm with ligand (GkApcT-MgtS heterodimer [9]): 57 to 72 °C
Compound: CC(C)CCC[C@@H](C)[C@H]1CC[C@H]2[C@@H]3CC=C4C[C@@H](OC(=O)CCC(=O)O)CC[C@]4(C)[C@H]3CC[C@]12C [cholesterol hemisuccinate]

Compound: CC(C)CCC[C@@H](C)[C@H]1CC[C@H]2[C@@H]3CC=C4C[C@@H](O)CC[C@]4(C)[C@H]3CC[C@]12C [cholesterol]
- X-ray crystal structure (GkApcT-MgtS heterodimer [10]): we observed density for a cholesterol molecule in this pocket
